Data reported in patent US20180201592A1, “2-AMINO-1,3,4-THIADIAZINE AND 2-AMINO-1,3,4-OXADIAZINE BASED ANTIFUNGAL AGENTS” (F2G Limited, priority 2015, published 2018).

Tests used:
Details in all cases: banded MIC grade
[1] = system: C. albicans; experiment: Minimum inhibitory concentration, RPMI medium; assay type: cell-based
Method in brief: (§1)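 Compound stock was made at 5 mg/mL in DMSO, diluted in sterile water and serially doubled in water, then tested in RPMI 1640 medium. Plates were incubated 24-48 hrs at 35° C, and growth was scored as optical density at 485 nm.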

[2] = system: C. glabrata; experiment: Minimum inhibitory concentration, RPMI medium; assay type: cell-based
Method in brief: as §1

[3] = system: C. krusei; experiment: Minimum inhibitory concentration, RPMI medium; assay type: cell-based
Method in brief: as §1

[4] = system: A. terreus; experiment: Minimum inhibitory concentration, RPMI medium; assay type: cell-based
Method in brief: as §1

[5] = system: A. niger; experiment: Minimum inhibitory concentration, RPMI medium; assay type: cell-based
Method in brief: as §1

[6] = system: A. flavus; experiment: Minimum inhibitory concentration, RPMI medium; assay type: cell-based
Method in brief: as §1

[7] = system: A. terreus 49; experiment: Minimum inhibitory concentration, RPMI medium; assay type: cell-based
Method in brief: as §1

[8] = system: C. tropicalis; experiment: Minimum inhibitory concentration, RPMI medium; assay type: cell-based
Method in brief: as §1

[9] = system: C. parapsilosis; experiment: Minimum inhibitory concentration, RPMI medium; assay type: cell-based
Method in brief: as §1

[10] = system: A. fumigatus 210; experiment: Minimum inhibitory concentration, YAG medium; assay type: cell-based, Aspergillus fumigatus
Method in brief: (§2)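 Broth microdilution in YAG medium (1% glucose, 1% ammonium chloride, 0.5% yeast extract) with spore inocula of 1-2×10^4 cfu/mL and doubling dilutions typically spanning 50-0.05 mg/L. Plates were incubated 24 hrs at 35° C and read by OD 485 nm. MIC is the lowest concentration giving >70% growth inhibition versus drug-free control, in mg/L.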

[11] = system: A. fumigatus 210; experiment: Minimum inhibitory concentration, RPMI medium; assay type: cell-based
Description: (§3) Between 1 and 5 mgs of compound were accurately weighed out into a sterile Eppendorf tube. The compound was dissolved in DMSO to give a solution containing 5 mg/mL. Tubes were stored at −20° C. until required.
(§4) On the day of testing thawed solutions were vortex mixed to ensure homogeneity. 30 μL of solution was removed and added to 570 μL of sterile water in a separate sterile Eppendorf. The thoroughly mixed solution was used to prepare a series of doubling dilutions in water, in a deep well plate. Thirteen replicate plates were prepared using a Minitrak by aspirating 20 μL from each well into eleven clear polystyrene 96 well plates.
(§5) Assays were also performed in RPMI medium (Roswell Park Memorial Media 1640). To perform MIC tests in this medium, dilutions of compounds are prepared in microtitre plates as described above. Fungal strains to be tested are grown and harvested in an identical manner to that described above, and each organism suspension was diluted in RPMI medium, typically containing 2% glucose and 0.135 M MOPS buffer (pH 7.0) to 0.5-2×10^4cfu/mL, rather than in YAG medium. 80 μL of an organism suspension was added to each well of the plate containing drug dilutions.
(§6) This produced MIC plates with a drug range 50-0.05 mg/L and organism inocula of 1-2×10^4 cfu/mL. All plates were incubated for 24-48 hrs at 35° C. Growth was assessed by monitoring the optical density at 485 nm for each well. The MIC of a compound is the lowest drug concentration that inhibits growth of an organism by >80% compared with a drug free control. The following organisms were tested: C. albicans, C. parapsilosis, C. tropicalis, C. glabrata, C. krusei, A. niger, A. fumigatus, A. terreus, A. flavus, A. terreus 49, and A. fumigatus 210.

[12] = system: A. fumigatus; experiment: Minimum inhibitory concentration, RPMI medium; assay type: cell-based
Description: as §3, §4, §5, §6

[13] = system: A. terreus 49; experiment: Minimum inhibitory concentration, YAG medium; assay type: cell-based, Aspergillus terreus
Method in brief: (§7)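 Compound from a 5 mg/mL DMSO stock was further diluted in sterile water, then serially doubled in water and plated with Aspergillus spp. spores. After 24 hrs at 35° C, growth was monitored by optical density at 485 nm; MICs are given in mg/L.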

[14] = system: Aspergillus fumigatus; experiment: Minimum inhibitory concentration, YAG medium; assay type: cell-based
Method in brief: as §2

[15] = system: Aspergillus flavus; experiment: Minimum inhibitory concentration, YAG medium; assay type: cell-based
Method in brief: as §7

[16] = system: Aspergillus terreus; experiment: Minimum inhibitory concentration, YAG medium; assay type: cell-based
Method in brief: as §7

[17] = system: Aspergillus niger; experiment: Minimum inhibitory concentration, YAG medium; assay type: cell-based
Method in brief: as §7

NC1=NN=C(CCCCCOc2ccccn2)CS1
MIC grade, C. ALBICANS, RPMI media [1]: 4 (4: <1 mg/L)
MIC grade, C. GLABRATA, RPMI media [2]: 3 (3: 1-5 mg/L)
MIC grade, C. KRUSEI, RPMI media [3]: 4 (4: <1 mg/L)
MIC grade, A. TERREUS, RPMI media [4]: 4 (4: <1 mg/L)
MIC grade, A. NIGER, RPMI media [5]: 4 (4: <1 mg/L)
MIC grade, A. FLAVUS, RPMI media [6]: 4 (4: <1 mg/L)
MIC grade, A. TERREUS 49, RPMI media [7]: 4 (4: <1 mg/L)
MIC grade, C. TROPICALIS, RPMI media [8]: 4 (4: <1 mg/L)
MIC grade, C. PARAPSILOSIS, RPMI media [9]: 4 (4: <1 mg/L)
MIC grade, A. FUMIGATUS 210, YAG media [10]: 4 (4: <0.2 mg/L)
MIC grade, A. FUMIGATUS 210, RPMI media [11]: 3 (3: 1-5 mg/L)
MIC grade, A. FUMIGATUS, RPMI media [12]: 4 (4: <1 mg/L)
MIC grade, A. TERREUS 49, YAG media [13]: 4 (4: <0.2 mg/L)
MIC grade, A. FUMIGATUS, YAG media [14]: 4 (4: <0.2 mg/L)
MIC grade, A. FLAVUS, YAG media [15]: 4 (4: <0.2 mg/L)
MIC grade, A. TERREUS, YAG media [16]: 4 (4: <0.2 mg/L)
MIC grade, A. NIGER, YAG media [17]: 4 (4: <0.2 mg/L)

NC1=NN=C(CCCCOCc2cc(F)cc(F)c2)CS1
MIC grade, C. ALBICANS, RPMI media [1]: 4 (4: <1 mg/L)
MIC grade, C. GLABRATA, RPMI media [2]: 3 (3: 1-5 mg/L)
MIC grade, C. KRUSEI, RPMI media [3]: 4 (4: <1 mg/L)
MIC grade, A. TERREUS, RPMI media [4]: 3 (3: 1-5 mg/L)
MIC grade, A. NIGER, RPMI media [5]: 3 (3: 1-5 mg/L)
MIC grade, A. FLAVUS, RPMI media [6]: 3 (3: 1-5 mg/L)
MIC grade, A. TERREUS 49, RPMI media [7]: 3 (3: 1-5 mg/L)
MIC grade, C. TROPICALIS, RPMI media [8]: 4 (4: <1 mg/L)
MIC grade, C. PARAPSILOSIS, RPMI media [9]: 4 (4: <1 mg/L)
MIC grade, A. FUMIGATUS 210, YAG media [10]: 4 (4: <0.2 mg/L)
MIC grade, A. FUMIGATUS 210, RPMI media [11]: 2 (2: 5-20 mg/L)
MIC grade, A. FUMIGATUS, RPMI media [12]: 4 (4: <1 mg/L)
MIC grade, A. TERREUS 49, YAG media [13]: 4 (4: <0.2 mg/L)
MIC grade, A. FUMIGATUS, YAG media [14]: 4 (4: <0.2 mg/L)
MIC grade, A. FLAVUS, YAG media [15]: 4 (4: <0.2 mg/L)
MIC grade, A. TERREUS, YAG media [16]: 4 (4: <0.2 mg/L)
MIC grade, A. NIGER, YAG media [17]: 4 (4: <0.2 mg/L)

NC1=NN=C(CCCCOCCc2ccccc2)CS1
MIC grade, C. ALBICANS, RPMI media [1]: 3 (3: 1-5 mg/L)
MIC grade, C. GLABRATA, RPMI media [2]: 2 (2: 5-20 mg/L)
MIC grade, C. KRUSEI, RPMI media [3]: 3 (3: 1-5 mg/L)
MIC grade, A. TERREUS, RPMI media [4]: 2 (2: 5-20 mg/L)
MIC grade, A. NIGER, RPMI media [5]: 2 (2: 5-20 mg/L)
MIC grade, A. FLAVUS, RPMI media [6]: 3 (3: 1-5 mg/L)
MIC grade, A. TERREUS 49, RPMI media [7]: 2 (2: 5-20 mg/L)
MIC grade, C. TROPICALIS, RPMI media [8]: 3 (3: 1-5 mg/L)
MIC grade, C. PARAPSILOSIS, RPMI media [9]: 3 (3: 1-5 mg/L)
MIC grade, A. FUMIGATUS 210, YAG media [10]: 3 (3: 0.2-1 mg/L)
MIC grade, A. FUMIGATUS 210, RPMI media [11]: 1 (1: ≥20 mg/L)
MIC grade, A. FUMIGATUS, RPMI media [12]: 2 (2: 5-20 mg/L)
MIC grade, A. TERREUS 49, YAG media [13]: 3 (3: 0.2-1 mg/L)
MIC grade, A. FUMIGATUS, YAG media [14]: 3 (3: 0.2-1 mg/L)
MIC grade, A. FLAVUS, YAG media [15]: 4 (4: <0.2 mg/L)
MIC grade, A. TERREUS, YAG media [16]: 3 (3: 0.2-1 mg/L)
MIC grade, A. NIGER, YAG media [17]: 3 (3: 0.2-1 mg/L)
